The source of these data is patent US10028992B2, “Methods of treating muscular dystrophy” (BOARD OF REGENTS OF THE NEVADA SYSTEM OF HIGHER EDUCATION …, priority 2012, dated 2018).

The test system of the experiment is α7 integrin promoter. Nature of the experiment: muscle cell-based assay: α7βgal+/− myoblasts/myotubes, LacZ reporter, β-galactosidase cleavage of FDG. The settings on record: Myoblasts. Set-up: species or system mouse; Results in α7+/− β-galactosidase assay: scale not given here. The method in brief: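 Primary α7βgal+/− mouse myoblasts (LacZ knocked into α7 integrin exon 1, promoter retained), differentiated; promoter activity read as β-galactosidase conversion of non-fluorescent FDG to fluorescein. Hits followed by dose-response, western analysis and myostatin counterscreen.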

Molecules are shown by their SMILES.

For the compound `CC1(C)Cc2ccccc2-c2nc3n(c(=O)c21)CCS3` [drawing 588], the “Results in α7+/− β-galactosidase assay” value runs as follows: (0.5 uM) 0.2141; (1 uM) 0.0159; (5 uM) 0.02034; (10 uM) 0.02377; (20 uM) −0.2051; (40 uM) −0.4207.
For the compound `CN(/C(=N/S(=O)(=O)c1cccs1)c1ccccc1)c1ccccc1` [drawing 589], the “Results in α7+/− β-galactosidase assay” value by setting is: (0.5 uM) 0.2361; (1 uM) −0.03677; (5 uM) −0.05696; (10 uM) −0.01934; (20 uM) −0.0583; (40 uM) −0.2263.
As for `CSc1ccc(S(=O)(=O)NCc2ccccc2)cc1` [drawing 590], the “Results in α7+/− β-galactosidase assay” value by setting is: (0.5 uM) −0.1174; (1 uM) −0.07696; (5 uM) 0.06657; (10 uM) 0.6252; (20 uM) 0.01406; (40 uM) −0.1992.
`O=C1Nc2ccccc2/C1=C/c1ccccc1F` [drawing 591]: the “Results in α7+/− β-galactosidase assay” value by setting is: (0.5 uM) −0.0677; (1 uM) −0.05193; (5 uM) 0.009111; (10 uM) 0.1004; (20 uM) −0.4184; (40 uM) −0.7444.
As for `CN1C(=O)/C(=C(/C#N)c2nc3ccccc3[nH]2)c2ccccc21` [drawing 592], the “Results in α7+/− β-galactosidase assay” value is reported as −0.1972 (0.5 uM); −0.1961 (1 uM); −0.2667 (5 uM); 0.04652 (10 uM); −0.456 (20 uM); −0.5499 (40 uM).
With `CC1CC(C)(C)N=C(S)N1CC(=O)N(C)Cc1ccccc1` (stereo not drawn) [drawing 593], the “Results in α7+/− β-galactosidase assay” value is reported as −0.00967 (0.5 uM); 0.04937 (1 uM); 0.1163 (5 uM); 0.244 (10 uM); 0.03336 (20 uM); 0.02068 (40 uM).
As to `Cc1noc(C)c1COc1ccc(C(=O)NCCc2ccccn2)cc1` [drawing 594], the “Results in α7+/− β-galactosidase assay” value reads like this: (0.5 uM) −0.1523; (1 uM) −0.1552; (5 uM) −0.01736; (10 uM) 0.1691; (20 uM) −0.127; (40 uM) −0.3226.
As to `COCCSc1ccccc1C(=O)Nc1cc(C)cc(C)c1` [drawing 595], the “Results in α7+/− β-galactosidase assay” value is reported as −0.06029 (0.5 uM); −0.1236 (1 uM); 0.04359 (5 uM); 0.2482 (10 uM); −0.09845 (20 uM); −0.1003 (40 uM).
As for `CC(=O)Nc1ccc(NC(=O)c2cc(=O)c3cc(C)cc(C)c3o2)cc1` [drawing 596], the “Results in α7+/− β-galactosidase assay” value (0.5 uM) is listed as −0.1173; the “Results in α7+/− β-galactosidase assay” value (1 uM) is −0.07551; the “Results in α7+/− β-galactosidase assay” value (5 uM) is recorded as −0.4622; the “Results in α7+/− β-galactosidase assay” value (10 uM) amounted to 0.1321; the “Results in α7+/− β-galactosidase assay” value (20 uM) is −0.5173; the “Results in α7+/− β-galactosidase assay” value (40 uM) is on record as −0.5206.
As to `Cc1cccc(Sc2nc(-c3ccccc3)ccc2C#N)c1` [drawing 598], the “Results in α7+/− β-galactosidase assay” value by setting is: (0.5 uM) −0.2243; (1 uM) −0.2124; (5 uM) 0.4228; (10 uM) 0.1696; (20 uM) −0.08803; (40 uM) −0.1146.
Take `CCC(C)NC(=O)CSc1nnc(COc2ccc(Br)cc2)o1` (stereo not drawn) [drawing 599]: the “Results in α7+/− β-galactosidase assay” value is reported as 0.03703 (0.5 uM); −0.07 (1 uM); −0.1163 (5 uM); 0.4886 (10 uM); −0.0797 (20 uM); −0.4672 (40 uM).
Turning to `Cc1ccc(N2C(=O)C3NN=C(C(=O)OCc4ccccc4)C3C2=O)cc1` (stereo not drawn) [drawing 600], the “Results in α7+/− β-galactosidase assay” value is reported as 0.05483 (0.5 uM); −0.02931 (1 uM); −0.09981 (5 uM); −0.01836 (10 uM); 0.1359 (20 uM); −0.03893 (40 uM).
Consider `Cc1cc([N+](=O)[O-])ccc1NC(=O)C(C)N1CCN(c2ccccn2)CC1` (stereo not drawn) [drawing 601], for which the “Results in α7+/− β-galactosidase assay” value runs as follows: (0.5 uM) 0.08805; (1 uM) 0.0582; (5 uM) −0.01841; (10 uM) −0.03065; (20 uM) −0.0419; (40 uM) −0.274.
Turning to `CCc1nc(/C=C2\C(=O)Nc3ccccc32)c[nH]1` [drawing 602], the “Results in α7+/− β-galactosidase assay” value (0.5 uM) is 0.2737; the “Results in α7+/− β-galactosidase assay” value (1 uM) was found to be 0.07781; the “Results in α7+/− β-galactosidase assay” value (5 uM) was found to be 0.08036; the “Results in α7+/− β-galactosidase assay” value (10 uM) was determined as 0.1565; the “Results in α7+/− β-galactosidase assay” value (20 uM) was determined as 0.1925; the “Results in α7+/− β-galactosidase assay” value (40 uM) is given as −0.2038.
As to `CCOC(=O)C1(Cc2cccc(Cl)c2)CCCN(C(=O)CCSC)C1` (stereo not drawn) [drawing 604], the “Results in α7+/− β-galactosidase assay” value (0.5 uM) was determined as 0.08932; the “Results in α7+/− β-galactosidase assay” value (1 uM) is −0.00471; the “Results in α7+/− β-galactosidase assay” value (5 uM) is −0.04484; the “Results in α7+/− β-galactosidase assay” value (10 uM) is given as −0.02503; the “Results in α7+/− β-galactosidase assay” value (20 uM) is −0.06029; the “Results in α7+/− β-galactosidase assay” value (40 uM) is −0.2262.
`Cc1cccc2c(/N=N/c3ccc(S(=O)(=O)Nc4ccc(Cl)cc4)cc3[N+](=O)[O-])c(O)[nH]c12` [drawing 605]: the “Results in α7+/− β-galactosidase assay” value is, setting by setting: (0.5 uM) −0.02621; (1 uM) −0.05717; (5 uM) −0.2201; (10 uM) −0.3043; (20 uM) −0.4039; (40 uM) −0.5304.
As to `CC(C)c1ccc(OC(=O)c2cccc(S(=O)(=O)N3CCN(C)CC3)c2)cc1` [drawing 606], the “Results in α7+/− β-galactosidase assay” value runs as follows: (0.5 uM) −0.02855; (1 uM) −0.1053; (5 uM) 0.3741; (10 uM) −0.02381; (20 uM) 0.03734; (40 uM) −0.08446.
`CC(C)c1ccc(NC(=O)CN2C(=O)c3ccccc3S2(=O)=O)cc1` [drawing 607]: the “Results in α7+/− β-galactosidase assay” value (0.5 uM) is −0.1297; the “Results in α7+/− β-galactosidase assay” value (1 uM) is reported as −0.1704; the “Results in α7+/− β-galactosidase assay” value (5 uM) came to 0.367; the “Results in α7+/− β-galactosidase assay” value (10 uM) is reported as −0.05458; the “Results in α7+/− β-galactosidase assay” value (20 uM) was −0.03658; the “Results in α7+/− β-galactosidase assay” value (40 uM) is −0.09806.
Consider `NC(=O)c1sc2nc3c(cc2c1N)CCC3` [drawing 608], for which the “Results in α7+/− β-galactosidase assay” value is recorded as 0.003482 (0.5 uM); 0.04559 (1 uM); 0.02429 (5 uM); 0.07579 (10 uM); 0.3169 (20 uM); 0.4925 (40 uM).
For `O=C(Nc1ccccc1OC(=O)c1ccc(Cl)cc1)c1ccc(Cl)cc1` [drawing 609], the “Results in α7+/− β-galactosidase assay” value is listed as 0.03104 (0.5 uM); 0.01493 (1 uM); −0.04769 (5 uM); −0.1879 (10 uM); 0.6323 (20 uM); −0.3765 (40 uM).
`CC(NC(=O)c1ccc(C(C)(C)C)cc1)C(c1cccs1)N1CCOCC1` (stereo not drawn) [drawing 610]: the “Results in α7+/− β-galactosidase assay” value is recorded as 0.08931 (0.5 uM); 0.1802 (1 uM); 0.07478 (5 uM); −0.02239 (10 uM); −0.1131 (20 uM); −0.1382 (40 uM).
For `CCC(=O)c1ccc(OCC(O)CN2CCOC(C)C2)cc1.O=C(O)C(=O)O` (stereo not drawn) [drawing 611], the “Results in α7+/− β-galactosidase assay” value reads like this: (0.5 uM) 0.222; (1 uM) 0.08832; (5 uM) −0.02345; (10 uM) −0.1332; (20 uM) 0.0354; (40 uM) 0.02206.
For the compound `CC1CCN(C(CNS(=O)(=O)c2ccccc2)c2ccccc2)CC1` (stereo not drawn) [drawing 612], the “Results in α7+/− β-galactosidase assay” value by setting is: (0.5 uM) 0.05229; (1 uM) −0.05932; (5 uM) −0.02531; (10 uM) −0.1141; (20 uM) −0.291; (40 uM) −0.3822.
